Data as given in patent US20260182568A1, “DISINFECTANT AND PRESERVATIVE COMPOSITIONS” (BJBIOCHEM CO., LTD., priority 2023, published 2026).
Converted amounts (≈) assume the structure as drawn. Values belong to the molecule of their own block, whether it stands above or below them.

How the values were obtained:
Escherichia coli = assay: Disk diffusion antibacterial test; format: cell-based
Aspergillus brasiliensis = assay: Disk diffusion antibacterial test; format: cell-based
Staphylococcus aureus = assay: Disk diffusion antibacterial test; format: cell-based
Malassezia globosa = assay: Sterilizing power (broth dilution MIC) of anti-dandruff hair care (antifungal) compositions
Malassezia furfur = assay: as above
Candida albicans = assay: Disk diffusion antibacterial test; format: cell-based
Pseudomonas aeruginosa = assay: Disk diffusion antibacterial test; format: cell-based
Malassezia restricta = assay: Sterilizing power (broth dilution MIC) of anti-dandruff hair care (antifungal) compositions
E. coli = assay: Broth dilution MIC test of antimicrobial and preservative compositions; format: cell-based, Escherichia coli; details: % only in method b353
Experimental: (§1) C. albicans was inoculated into Sabouraud dextrose broth and cultured at 25° C. for 24 hours. […] The liquid media used for E. coli, S. aureus, and P. aeruginosa (bacteria) were tryptic soy broth, and the liquid media used for C. albicans, and A. brasiliensis (fungi) were Sabouraud dextrose broth.

S. aureus = assay: as above; format: cell-based, Staphylococcus aureus; details: % only in method b353
Experimental: as §1

A. brasiliensis = assay: as above; format: cell-based, Aspergillus brasiliensis; details: % only in method b353
Experimental: as §1

C. albicans = assay: as above; format: cell-based, Candida albicans; details: % only in method b353
Experimental: as §1

P. aeruginosa = assay: as above; format: cell-based, Pseudomonas aeruginosa; details: % only in method b353
Experimental: as §1

[1] = comparison over mixing ratios of Formula 1 with PO, ZPT or CB
[2] = Test A (Formula 1 / Formula 2), Tables 2-3
[3] = Test B (Formula 1 / Formula 3), Tables 16-17
[4] = Formula 1 mixed with climbazole (CB) at mixing ratio (%), broth dilution
[5] = Formula 1 mixed with zinc pyrithione (ZPT) at mixing ratio (%), broth dilution

Molecule: CCCCCCCCCCCCN(CC(O)CO)CC(O)CO (stereo not drawn) [3,3′-(dodecylimino)bispropane-1,2-diol]
clear zone where strain growth was inhibited, E. coli (Escherichia coli; 50 μl on disk, 1st repetition): 2.5 mm
clear zone where strain growth was inhibited, E. coli (Escherichia coli; 50 μl on disk, 2nd repetition): 2.5 mm
clear zone where strain growth was inhibited, E. coli (Escherichia coli; 50 μl on disk, 3rd repetition): 3 mm
clear zone where strain growth was inhibited, E. coli (Escherichia coli; Mean of three repetitions): 2.6 mm
clear zone where strain growth was inhibited, A. brasiliensis (Aspergillus brasiliensis; 50 μl on disk, 1st repetition): 1.5 mm
clear zone where strain growth was inhibited, A. brasiliensis (Aspergillus brasiliensis; 50 μl on disk, 2nd repetition): 2 mm
clear zone where strain growth was inhibited, A. brasiliensis (Aspergillus brasiliensis; 50 μl on disk, 3rd repetition): 2 mm
clear zone where strain growth was inhibited, A. brasiliensis (Aspergillus brasiliensis; Mean of three repetitions): 1.8 mm
clear zone where strain growth was inhibited, S. aureus (Staphylococcus aureus; 50 μl on disk, 1st repetition): 2 mm
clear zone where strain growth was inhibited, S. aureus (Staphylococcus aureus; 50 μl on disk, 2nd repetition): 3 mm
clear zone where strain growth was inhibited, S. aureus (Staphylococcus aureus; 50 μl on disk, 3rd repetition): 2.5 mm
clear zone where strain growth was inhibited, S. aureus (Staphylococcus aureus; Mean of three repetitions): 2.5 mm
sterilizing effect against Malassezia globosa (in words) (Malassezia globosa; [1]): lowest sterilizing effect
sterilizing effect against Malassezia furfur (in words) (Malassezia furfur; [1]): lowest sterilizing effect
clear zone where strain growth was inhibited, C. albicans (Candida albicans; 50 μl on disk, 1st repetition): 5 mm
clear zone where strain growth was inhibited, C. albicans (Candida albicans; 50 μl on disk, 2nd repetition): 5 mm
clear zone where strain growth was inhibited, C. albicans (Candida albicans; 50 μl on disk, 3rd repetition): 6 mm
clear zone where strain growth was inhibited, C. albicans (Candida albicans; Mean of three repetitions): 5.3 mm
clear zone where strain growth was inhibited, P. aeruginosa (Pseudomonas aeruginosa; 50 μl on disk, 1st repetition): 1 mm
clear zone where strain growth was inhibited, P. aeruginosa (Pseudomonas aeruginosa; 50 μl on disk, 2nd repetition): 1.5 mm
clear zone where strain growth was inhibited, P. aeruginosa (Pseudomonas aeruginosa; 50 μl on disk, 3rd repetition): 1 mm
clear zone where strain growth was inhibited, P. aeruginosa (Pseudomonas aeruginosa; Mean of three repetitions): 1.2 mm
sterilizing effect against Malassezia restricta (in words) (Malassezia restricta; [1]): lowest sterilizing effect

minimum inhibitory concentration (MIC), E. coli (E. coli; [2]): 0.1%
minimum inhibitory concentration (MIC), E. coli (E. coli; [3]): 0.1%
minimum inhibitory concentration (MIC), S. Aureus (S. aureus; [2]): 0.1%
minimum inhibitory concentration (MIC), S. Aureus (S. aureus; [3]): 0.1%
minimum inhibitory concentration (MIC), A. brasiliensis (A. brasiliensis; [2]): 0.1%
minimum inhibitory concentration (MIC), A. brasiliensis (A. brasiliensis; [3]): 0.1%
minimum inhibitory concentration (MIC), C. albicans (C. albicans; [2]): 0.05%
minimum inhibitory concentration (MIC), C. albicans (C. albicans; [3]): 0.05%
minimum inhibitory concentration (MIC), P. Aeruginosa (P. aeruginosa; [2]): 0.25%
minimum inhibitory concentration (MIC), P. Aeruginosa (P. aeruginosa; [3]): 0.25%
Molecule: CCCCCCCCCCCCN(CC(O)CO)CC(O)CO (stereo not drawn) [Comparative Example1, 3,3′-(dodecylimino)bispropane-1,2-diol]

Molecule: CC(C)(C)C(=O)C(Oc1ccc(Cl)cc1)n1ccnc1 (stereo not drawn) [climbazole]
MIC (Malassezia globosa; [4]): 1 µg/mL
MIC (Malassezia furfur; [4]): 20 µg/mL
MIC (Malassezia restricta; [4]): 4 µg/mL

MIC (Malassezia globosa; Malassezia globosa): 4 µg/mL (≈ 16.9 µM)
MIC (Malassezia furfur; Malassezia furfur): 30 µg/mL (≈ 126 µM)
MIC (Malassezia restricta; Malassezia restricta): 18 µg/mL (≈ 75.8 µM)
Molecule: Cc1cc(CC(C)CC(C)(C)C)n(O)c(=O)c1 (stereo not drawn) [piroctone olamine]

Molecule: zinc pyrithione
MIC (Malassezia globosa; [5]): 1 µg/mL
MIC (Malassezia furfur; [5]): 7 µg/mL
MIC (Malassezia restricta; [5]): 4 µg/mL
